In patent US11717471B2, “Hydrogel microcapsules” (ISP Investments LLC, priority 2010, dated 2023):
In brackets after ≈: the same amount, converted by molar mass.

Tests used:
[1] = Solubility of amine monomers of Formula I in water; assay type: physicochemical
Source text: The insolubility point was reached when a distinct two separate layers was observed.

[2] = Material Safety Data Sheet from Arkema Inc for Norsocryl; cited from earlier work
[3] = 0.1 g amine monomer/100 g deionised water
[4] = 0.2 g amine monomer/100 g deionised water
[5] = 0.3 g amine monomer/100 g deionised water
[6] = 0.4 g amine monomer/100 g deionised water
[7] = 0.5 g amine monomer/100 g deionised water
[8] = 1.0 g amine monomer/100 g deionised water
[9] = 1.5 g amine monomer/100 g deionised water
[10] = 2.0 g amine monomer/100 g deionised water
[11] = 2.5 g amine monomer/100 g deionised water
[12] = 5.0 g amine monomer/100 g deionised water
[13] = 7.5 g amine monomer/100 g deionised water
[14] = 10.0 g amine monomer/100 g deionised water
[15] = 12.5 g amine monomer/100 g deionised water
[16] = 15.0 g amine monomer/100 g deionised water

solubility in water ([1]; quaternized monomer) | solubility in water [1, 3] | solubility in water [1, 4] | solubility in water [1, 5] | solubility in water [1, 6] | solubility in water [1, 7] | solubility in water [1, 8] | solubility in water [1, 9] | solubility in water [1, 10] | solubility in water [1, 11] | solubility in water [1, 12] | solubility in water [1, 13] | solubility in water [1, 14] | solubility in water [1, 15] | solubility in water [1, 16] | solubility in water ([1]; estimated from Table 2) | Structure (SMILES) | solubility in water, published literature value [2] [mg/mL]
completely water soluble |  |  |  |  |  |  |  |  |  |  |  |  |  |  |  | C=C(C)C(=O)OCC[N+](C)(CC)CC.COS(=O)(=O)[O-] [DEAEMA Quat DMS, Diethylaminoethyl methacrylate dimethyl sulphate quaternary ammonium form] | 
 | soluble | insoluble | insoluble | insoluble | insoluble | insoluble | insoluble | insoluble | insoluble | insoluble | insoluble | insoluble | insoluble | insoluble |  | C=C(C)C(=O)OCCN(CC)CC [DEAEMA, diethylaminoethyl methacrylate] | 
 | soluble | insoluble | insoluble | insoluble | insoluble | insoluble | insoluble | insoluble | insoluble | insoluble | insoluble | insoluble | insoluble | insoluble |  | C=C(C)C(=O)OCCN(C(C)C)C(C)C [DPAEMA, Diisopropylaminoethyl methacrylate] | 
 | soluble | soluble | soluble | soluble | soluble | soluble | soluble | insoluble | insoluble | insoluble | insoluble | insoluble | insoluble | insoluble | less than 2 g/100 g water | C=C(C)C(=O)OCCNC(C)(C)C [TBAEMA, tertiary-butylaminoethyl methacrylate] | 18 (≈ 97.2 mM)
